For 20 compounds, Susceptibility test results are on record in patent US11806790B2, “Biosynthesis of metal nanoparticles” (KING SAUD UNIVERSITY, priority 2019, dated 2023).

Parameters in all cases: key: R = resistant; S = susceptible; BLAC = Beta-lactamase positive
In one test the test system is S. epidermidis (R). Briefly: Susceptibility test of Gram positive Bacteria. The test is classed as cell-based.
In the next test the test system is MRSA. Briefly: Susceptibility test of Gram positive Bacteria. It counts as cell-based, Methicillin-resistant S. aureus.
The test system of the next test is S. aureus (S). Briefly: Susceptibility test of Gram positive Bacteria. The test is classed as cell-based.
The subject of a further test is S. epidermidis (S). In words: Susceptibility test of Gram positive Bacteria. The test is classed as cell-based.
In the next test the test system is A. baumannii (R). In words: Susceptibility test of Gram negative Bacteria. The test is classed as cell-based.
A further test concerns A. baumannii (S). Briefly: Susceptibility test of Gram negative Bacteria. It counts as cell-based.
A further test has as its system E. coli (R). In words: Susceptibility test of Gram negative Bacteria. It counts as cell-based.
The subject of another test is E. coli (S). Briefly: Susceptibility test of Gram negative Bacteria. It counts as cell-based.

For `O=C(O)c1cn(C2CC2)c2cc(N3CCNCC3)c(F)cc2c1=O` [Ciprofloxacin], the Susceptibility test entry in the test on S. epidermidis (R) is “R”; in the test on MRSA, “S”; with S. aureus (S), “S”; with S. epidermidis (S) it was “S”.
For `CO/N=C(\C(=O)N[C@@H]1C(=O)N2C(C(=O)O)=C(COC(C)=O)CS[C@H]12)c1csc(N)n1` [Cefotaxime], the Susceptibility test entry in the test with A. baumannii (R) was “R”; in the test on A. baumannii (S), “S”; with S. epidermidis (R), “R”.
For the compound `C=CC1=C(C(=O)O)N2C(=O)[C@@H](NC(=O)/C(=N\OCC(=O)O)c3csc(N)n3)[C@H]2SC1` [Cefixime], the results for the Susceptibility test entry in the test with A. baumannii (R), in the test on E. coli (R) and in the test with E. coli (S) were “R”, “R” and “S”, respectively.
For `CO/N=C(\C(=O)N[C@@H]1C(=O)N2C(C(=O)O)=C(COC(N)=O)CS[C@H]12)c1ccco1` [Cefuroxime], the Susceptibility test result is “R” in the test with A. baumannii (R), “S” in the test with A. baumannii (S) and “R” in the test on E. coli (R).
Regarding `CC1(C)S[C@@H]2[C@H](NC(=O)Cc3ccccc3)C(=O)N2[C@H]1C(=O)O` [Penicillin G], the Susceptibility test result with S. epidermidis (R) was “R”; in the test with MRSA, “BLAC”; in the test with S. aureus (S) it was “BLAC”; in the test on S. epidermidis (S), “S”.
Regarding Gentamycin, the Susceptibility test entry in the test with S. epidermidis (R) is given as “R”; in the test with MRSA it was “S”; in the test on S. aureus (S) it was “S”; with S. epidermidis (S), “S”.
Take `CC1(C)S[C@@H]2[C@H](NC(=O)[C@H](N)c3ccccc3)C(=O)N2[C@H]1C(=O)O` [Ampicillin]: the Susceptibility test result is given as “R” in the test on A. baumannii (R); “R” in the test on E. coli (R); “R” in the test on S. epidermidis (R); “S” in the test with E. coli (S); “BLAC” in the test with MRSA; “BLAC” with S. aureus (S). The Susceptibility test result in the test with S. epidermidis (S) is listed as “S”.
On to `Cc1onc(-c2ccccc2)c1C(=O)N[C@@H]1C(=O)N2[C@@H]1SC(C)(C)[C@@H]2C(=O)O` [Oxacillin], for which the Susceptibility test result in the test with S. epidermidis (R) is “R”; in the test on MRSA it was “R”; in the test on S. aureus (S), “S”; in the test with S. epidermidis (S), “S”.
Consider `CO/N=C(\C(=O)N[C@@H]1C(=O)N2C(C(=O)O)=C(CSc3nc(=O)c(O)nn3C)CS[C@H]12)c1csc(N)n1` [Ciftriaxone], for which the Susceptibility test result in the test on A. baumannii (R) is “R”.
Regarding `C[C@H]1[C@H](NC(=O)/C(=N\OC(C)(C)C(=O)O)c2csc(N)n2)C(=O)N1S(=O)(=O)O` [Aztreonam], the Susceptibility test result in the test on A. baumannii (R) is recorded as “R”; in the test on E. coli (R), “R”; in the test on E. coli (S) it was “S”.
Take `C[C@@H](O)[C@H]1C(=O)N2C(C(=O)O)=C(SCCN=CN)C[C@H]12` [Imipenem]: the Susceptibility test entry in the test with S. epidermidis (R) was “R”; in the test on MRSA, “R”; with S. aureus (S), “S”; with S. epidermidis (S) it was “S”.
With Trimethoprim-Sulfamethoxazole, the Susceptibility test result was “R” with S. epidermidis (R), “S” in the test with MRSA, “S” in the test with S. aureus (S) and “S” in the test on S. epidermidis (S).
In the case of `CCC[C@@H]1C[C@@H](C(=O)N[C@@H]([C@H]2O[C@H](SC)[C@H](O)[C@@H](O)[C@H]2O)[C@H](C)Cl)N(C)C1` [Clindamycin], the Susceptibility test entry in the test with S. epidermidis (R) is listed as “R”; in the test on S. aureus (S), “S”; with S. epidermidis (S) it was “S”.
Turning to `CC(=O)OCC1=C(C(=O)O)N2C(=O)[C@@H](NC(=O)Cc3cccs3)[C@H]2SC1` [Cefalotin], the Susceptibility test entry in the test on E. coli (R) is “R”; in the test with E. coli (S) it was “S”.
As to `O=C1CN(/N=C/c2ccc([N+](=O)[O-])o2)C(=O)N1` [Nitrofurantoin], the Susceptibility test entry in the test with A. baumannii (R) was “R”.
Consider Amoxicillin-Clavulanate, for which the Susceptibility test result was “R” in the test with A. baumannii (R); “R” in the test on S. epidermidis (R); “R” with MRSA; “S” in the test on S. aureus (S); “S” in the test on S. epidermidis (S).
On to `C/C(=C\C(=O)OCCCCCCCCC(=O)O)C[C@@H]1OC[C@H](C[C@@H]2O[C@H]2[C@@H](C)[C@H](C)O)[C@@H](O)[C@H]1O` [Mupirocin], for which the Susceptibility test entry was “R” with S. epidermidis (R), “S” in the test with MRSA, “S” with S. aureus (S) and “S” in the test with S. epidermidis (S).
`CC1(C)S[C@@H]2[C@H](NC(=O)[C@H](N)c3ccc(O)cc3)C(=O)N2[C@H]1C(=O)O` [Amoxicillin]: the Susceptibility test entry in the test on A. baumannii (R) is given as “R”; in the test with A. baumannii (S), “S”; with E. coli (R), “R”; in the test on E. coli (S), “S”.
On to `CC[C@H]1OC(=O)[C@H](C)[C@@H](O[C@H]2C[C@@](C)(OC)[C@@H](O)[C@H](C)O2)[C@H](C)[C@@H](O[C@@H]2O[C@H](C)C[C@H](N(C)C)[C@H]2O)[C@](C)(O)C[C@@H](C)C(=O)[C@H](C)[C@@H](O)[C@]1(C)O` [Erythromycin], for which the values for the Susceptibility test entry in the test with S. epidermidis (R), in the test on S. aureus (S) and in the test on S. epidermidis (S) were “R”, “R” and “S”, respectively.
Turning to `CO[C@@]1(NC(=O)Cc2cccs2)C(=O)N2C(C(=O)O)=C(COC(N)=O)CS[C@@H]21` [Cefoxitin], the Susceptibility test entry with A. baumannii (R) is given as “R”; in the test with S. epidermidis (R), “R”; with MRSA it was “Positive”; with S. aureus (S), “Negative”; in the test on S. epidermidis (S), “S”.
